Results: ChEMBL document CHEMBL5724696, “Autophagy assay results for EUbOPEN Chemogenomics Library” (2024)
Values joined by “and” are separate entries in the source; they are usually repeats but may differ in a detail not shown here. Equal values may be shown once.

System: TERT-RPE1
Assay: Here: values are normalized to the negative (DMSO; defined as 0% autophagy induction) and positive (250nM Torin1; mTOR inhibitor; defined as maximal inducer of autophagy = 100%) control compounds and represented as % of autophagy induction. […] The impact of autophagy induction on cells is complex and depends on the affected target. As such, the magnitude of a phenotype may not be equally mirrored in the %-value of autophagy induction and vice versa. The dynamics of the induction may indicate the mode of activation: e.g. activation via phosphorylation or a signaling cascade may occur fast, while activation via transcription factors may take considerably longer. […] Of note, treatment concentrations may be sub-optimal for specific compounds, leading to false negative annotations.
Assay type: functional, Homo sapiens
Settings: Culturing Media DMEM/F12 (1:1), 1 % Penicillin/Streptomycin, 10% Fetal bovin serum Add-On: No, Screening Media Control DMEM/F12 (1:1), Screening Media Samples DMEM/F12 (1:1)
[1] = Compound Concentration 1 uM, Timepoint 12 hours
[2] = Compound Concentration 1 uM, Timepoint 24 hours
[3] = Compound Concentration 1 uM, Timepoint 36 hours
[4] = Compound Concentration 1 uM, Timepoint 60 hours
[5] = Compound Concentration 10 uM, Timepoint 12 hours
[6] = Compound Concentration 10 uM, Timepoint 24 hours
[7] = Compound Concentration 10 uM, Timepoint 36 hours
[8] = Compound Concentration 10 uM, Timepoint 60 hours

Compound	autophagy induction [1]	autophagy induction [2]	autophagy induction [3]	autophagy induction [4]	further results
CC(C)c1onc(-c2c(Cl)cccc2Cl)c1COc1ccc(/C=C/c2cccc(C(=O)O)c2)c(Cl)c1	-17.7139%	-8.477%	8.951%	-22.8602%	
CCOC(=O)C1Cc2ccccc2CN1C(=O)c1ccc(SC)s1 (configuration not stated)	141.578%	-7.836%	8.933%	-16.4137%	
CC(C)(O)c1cn(-c2ccc(-c3cccc(S(C)(=O)=O)c3)cc2)c(C(C)(C)c2ccccc2Cl)n1 [BMS-779788]	-11.1228%	-2.718%	17.5149%	-24.6575%	
CC(=O)Nc1nc(C)c(S(=O)(=O)Nc2ccc(C(O)(C(F)(F)F)C(F)(F)F)cc2)s1	4.3226%	10.3847%	21.8693%	-92.7489%	
C=C1/C(=C\C=C2/CCC[C@]3(C)[C@@H]([C@H](C)CCCC(C)(C)O)CC[C@@H]23)C[C@@H](O)C[C@@H]1O [CALCITRIOL]	36.7455%	-4.807%	11.5028%	-14.2726%	
CC[C@H]1[C@@H](O)[C@@H]2[C@H](CC[C@]3(C)[C@@H]([C@H](C)CCC(=O)O)CC[C@@H]23)[C@@]2(C)CC[C@@H](O)C[C@@H]12 [OBETICHOLIC ACID]	-8.507%	-7.962%	-3.9436%	2.71%	
Cc1oc2ccccc2c1Cc1cc(I)c(OCC(=O)O)c(I)c1					autophagy induction (Compound Concentration 3 uM, Timepoint 12 hours): -1.169%; autophagy induction (Compound Concentration 3 uM, Timepoint 24 hours): 9.702%; autophagy induction (Compound Concentration 3 uM, Timepoint 36 hours): 19.9109%; autophagy induction (Compound Concentration 3 uM, Timepoint 60 hours): -4.505%
CN(CCOc1ccc(CC2SC(=O)NC2=O)cc1)c1ccccn1 (configuration not stated) [ROSIGLITAZONE]	-11.8893%	0.9014%	16.9691%	-11.1596%	
O=S(=O)(c1ccccc1)N(CC(F)(F)F)c1ccc(C(O)(C(F)(F)F)C(F)(F)F)cc1 [T091317]	-11.1926%	-0.1715%	8.77%	-29.9579%	
Cc1cc(SCc2sc(-c3ccc(C(F)(F)F)c(F)c3)nc2C)ccc1OCC(=O)O	-0.9501%	-2.27%	3.329%	-6.099%	
O=c1[nH]c2ccccc2n1CCCN1CCN(C(c2ccccc2)c2ccccc2)CC1 [OXATOMIDE]					autophagy induction [5]: 12.1676%; autophagy induction [6]: 23.0166%; autophagy induction [7]: 23.6799%; autophagy induction [8]: -2.469%
C[C@H](CCOc1cccc(CC(=O)O)c1)N(Cc1cccc(C(F)(F)F)c1Cl)CC(c1ccccc1)c1ccccc1.Cl	-13.5866%	1.703%	15.8521%	-16.0779%	
CC(C)c1c(CN(C)C(C)Cc2ccccc2)n(C)n(-c2ccccc2)c1=O (configuration not stated) [FAMPROFAZONE]	-9.526%	-5.45%	-2.084%	-36.1562%	
CC(C)c1cc(Oc2c(Cl)cc(-n3nc(C#N)c(=O)[nH]c3=O)cc2Cl)n[nH]c1=O [RESMETIROM]	-11.5681%	0.0003786%	17.8213%	-19.2681%	
Cc1nc(-c2ccc(C(F)(F)F)cc2)sc1C(=O)NCc1ccc(OC(C)(C)C(=O)O)cc1 [GW590735]	-16.082%	-2.956%	16.0196%	-2.481%	
COc1cc(O)c(C(CC(=O)N2C[C@H](C)C[C@H](C)C2)c2ccc3c(c2)OCO3)c(OC)c1 (some centres not stated)					autophagy induction (Compound Concentration 1 uM, Timepoint 12 hours, 12 h, 1 µM): -12.9989% and -4.38%; autophagy induction (Compound Concentration 1 uM, Timepoint 24 hours, 24 h, 1 µM): -0.5632% and -3.782%; autophagy induction (Compound Concentration 1 uM, Timepoint 36 hours, 36 h, 1 µM): 12.4792% and 2.693%; autophagy induction (Compound Concentration 1 uM, Timepoint 60 hours, 60 h, 1 µM): -12.6071% and -5.875%
Clc1ccc(-c2nc3sccn3c2/C=N/OCc2ccc(Cl)c(Cl)c2)cc1	-153.599%	-9.053%	9.503%	-19.9955%	
COc1ccc(OC(=O)N(CC(=O)O)Cc2ccc(OCCc3nc(-c4ccccc4)oc3C)cc2)cc1 [MURAGLITAZAR]	84.7945%	-9.438%	5.064%	-9.533%	
Cn1cc(C(=O)O)c2ccc(N3CCC(OCc4c(-c5c(Cl)cccc5Cl)noc4C4CC4)CC3)cc21 [TERN-101]	-2.759%	-6.198%	-6.322%	3.921%	
CC1(C)C(=O)C(C)(C)c2cc(C(=O)Nc3ccc(C(=O)O)cc3)ccc21	-15.7037%	-5.578%	15.5375%	-28.4557%	
O=C(Nc1ccc(C(O)(C(F)(F)F)C(F)(F)F)cc1)c1ccc(C(F)(F)F)cc1	1.9218%	1.011%	4.384%	2.099%	
CC(C)(Sc1ccc(CCN(CCCCC2CCCCC2)C(=O)NC2CCCCC2)cc1)C(=O)O [GW7647]	-14.4765%	-1.331%	15.0253%	-17.5748%	
CCC(C)N(C)C(=O)c1cc2ccccc2c(-c2ccccc2Cl)n1 (configuration not stated) [PK-11195]					autophagy induction [5]: -6.134%; autophagy induction [6]: 6.633%; autophagy induction [7]: 20.4099%; autophagy induction [8]: 30.5956%
COC(=O)C(Cc1ccc(OCCn2c(=O)sc3cc(C(=O)c4ccccc4)ccc32)cc1)C(=O)OC	-14.8184%	-7.449%	12.2337%	-20.3416%	
CC(C)(C[C@H]1CN(S(=O)(=O)c2cccc(C(F)(F)F)c2)c2cc(-c3cc(F)cc(OC(F)F)c3)ccc2O1)C(=O)O [CINTIRORGON]	-13.5912%	-2.372%	17.7364%	-18.8569%	
COC(=O)/C=C/c1cccc(N(Cc2ccc(-c3ccc(N(C)C)cc3)cc2)C(=O)C2CCCCC2)c1 [FEXARAMINE]	-11.8732%	0.4959%	16.8927%	-24.9579%	
Cc1cccc(CN2CCN(C(c3ccccc3)c3ccc(Cl)cc3)CC2)c1.Cl.Cl (configuration not stated)	89.2215%	-0.434%	13.2807%	-24.9822%	
CC(C=CC1=C(C)CCCC1(C)C)=CC=CC(C)=CC(=O)O	-29.8215%	-16.487%	10.9979%	39.1731%	
